Measured values from publication PMC8689140 (Frontiers in Pharmacology, 2021).

Legend:
Format in all cases: in vitro ADME, human
[1] = system: T1, CYP2C9; assay: P450 phenotyping, chemical inhibitors in HLMs, CYP2C9; conditions: CYP2C9 probe substrate, 5 µM, specific inhibitor
T1 construct: tissue Corning Co., Ltd (Shanghai, China); host or cells: human liver microsomes
Experimental: (§1) According to the result of metabolite identification, three metabolites were selected as the targets for metabolic phenotyping. Seven CYP isozymes (CYP1A2, CYP2B6, CYP2C8, CYP2C9, CYP2C19, CYP2D6, and CYP3A4) were investigated using two kinds of methods: chemical inhibitors in human liver microsomes (HLMs) method (Experiment 1) and rhCYP isozymes method (Experiment 2).
(§2) Experiment 1: HLMs were thawed on ice and diluted in100 mM sodium phosphate buffer (pH 7.4) containing 3 mM magnesium chloride. […] After 10 min of preincubation at 37°C, the reactions were initiated by adding 20 µL of NADPH (10 mM) and then incubated at 37 °C in a shaking water bath for 30 min. The samples were prepared in triplicates. The reactions were terminated by adding 600 µL of ice-cold acetonitrile and stored at −20°C until analysis. Control samples without NADPH and 0-time point samples were included. As positive controls, the probe substrates of each P450 isozyme under the same conditions were tested, and specific inhibitors was added. Next, the samples were centrifuged at 13,000 rpm for 10 min, the supernatants were determined by LC–MS/MS.

[2] = system: T2, rhCYP CYP2C9; assay: P450 phenotyping, rhCYP isozymes, CYP2C9; conditions: rhCYP2C9 probe substrate, 1 µM
T2 construct: purchased Corning Co., Ltd (Shanghai, China)
Source text: as §1
(§3) Experiment 2: Each rhCYP isozyme was thawed and diluted as above method. As positive controls, the probe substrates of each P450 isozyme were tested under the same conditions. […] Vx ([…]) is the production rate of metabolites for each rhCYP isozyme.

[3] = system: T3, CYP3A4; assay: P450 phenotyping, chemical inhibitors in HLMs, CYP3A4; conditions: CYP3A4 probe substrate, 2 µM, specific inhibitor
T3 construct: tissue Corning Co., Ltd (Shanghai, China); host or cells: human liver microsomes
Experimental: as §1, §2

[4] = system: T4, rhCYP CYP3A4; assay: P450 phenotyping, rhCYP isozymes, CYP3A4; conditions: rhCYP3A4 probe substrate, 0.4 µM
T4 construct: purchased Corning Co., Ltd (Shanghai, China)
Source text: as §1, §3

SMILES: O=C(O)Cc1ccccc1Nc1c(Cl)cccc1Cl [Diclofenac]
- %Inhibation in HLM [1]: 89.9%
- CL int in rhCYP [2]: 6.15 µL/min/pmol

SMILES: Cc1ncc2n1-c1ccc(Cl)cc1C(c1ccccc1F)=NC2 [Midazolam]
- %Inhibation in HLM [3]: 84.7%
- CL int in rhCYP [4]: 9.13 µL/min/pmol
